# “Also recorded” adds a separate entry of the source. Read-outs that look alike come from different tables or passages of the source. Bridges are numbered along the chain shown (N, C = ends). Where no end group is shown, it is not given here.
# Tests used:
# human C5 [1] = target: T1, human C5 (Homo sapiens, UniProt P01031); experiment: SPR cross blocking; assay type: binding; settings: HBS-EP, qualitative
# T1 construct: tissue TCS Biosciences (serum); host or cells: human serum
# Procedure: To test for cross blocking, arising from overlapping epitopes, or cooperativity between knob domains, we performed a surface plasmon resonance (SPR) cross blocking experiment, where, using a Biacore 8K, we saturated a C5-coated sensor chip with two 20 µM injections of knob domain peptide before injecting a different peptide at 20 µM to assess its capacity to bind. This provides a qualitative measure of cross blocking, whereby an increase in response units (RUs) indicates ternary complex formation, stoichiometries, or kinetics cannot be reliably derived with concurrent dissociation of both peptides (Figure 2).
# On a Biacore 8K (GE Healthcare, Amersham, UK), human C5 was amine coupled to a CM5 chip using the same protocol as for C5b. A final immobilisation level of approximately 1000–2000 RUs was obtained. For cross blocking, the surface was saturated with two sequential injections of a 20 µM knob domain solution in HBS-EP buffer (GE Healthcare, Amersham, UK) using a flow rate of 30 µL/min and contact time of 300 s. This was immediately followed with an injection of a second knob domain peptide, again at 20 µM in HBS-EP, with a flow rate of 30 µL/min and a contact time of 270 s, and the dissociation phase was measured for 600 s. […]
# human C5 [2] = target: T1, human C5; experiment: SPR multi-cycle kinetics, binding to C5
# Procedure: Kinetics were measured using a Biacore 8K (GE Healthcare, Amersham, UK) with a CM5 chip, which was prepared as follows: 1-ethyl-3-(−3-dimethylaminopropyl) carbodiimide hydrochloride (EDC)/N-hydroxysuccinimide (NHS) was mixed at 1:1 ratio (flow rate, 10 µL/min; contact time, 30 s), and human C5 at 1 µg/mL in pH 4.5 sodium acetate buffer was injected over flow cell one only (flow rate, 10 µL/min; contact time, 60 s). Final immobilisation levels in the range of 2000–3000 RUs were obtained to yield theoretical Rmax values of ~50–60 RU. […] After each injection, the surface was regenerated with two sequential injections of 2 M MgCl2 (flow rate, 30 µL/min; contact time, 30 s). Binding to the reference surface was subtracted, and the data were fitted to a single-site binding model using Biacore evaluation software.
# Table 2.6. Validation of molecular interactions by peptide mutagenesis analysis.
# Summary of SPR multi-cycle kinetics
# [3] = system: classical pathway mediated C5a release (complement C5); experiment: Inhibition of classical pathway mediated C5a release (ELISA); assay type: biochemical, human; settings: n=3 (K8: n=5), ND* = Not detected
# Procedure: For the C5b ELISA, assays were run using the CP and AP Complement functional ELISA kits (Svar Life Science, Malmö, Sweden). For sample preparation, serum was diluted as per the respective protocol for the CP and AP assays. Serial dilutions of peptides were prepared and allowed to incubate with serum for 15 min at room temperature prior to plating.
# For the C5a ELISA, assays were run using the Complement C5a Human ELISA Kit (Invitrogen, Renfrew, UK). For sample preparation, at the end of the 37°C incubation of the serum/peptide samples on the C5b ELISA plate, 50 µL of the diluted, activated serum was transferred to a C5a ELISA plate containing 50 µL/well of assay buffer. All subsequent experimental steps were performed as described in the protocol.
# Table 1.3. Inhibition of classical pathway mediated C5a release.
# Data from n=3 independent titrations, unless otherwise stated
# [4] = system: rabbit erythrocytes (alternative pathway haemolysis); experiment: Inhibition of alternative pathway haemolysis; assay type: cell-based, rabbit erythrocytes; normal human serum; settings: 4.5% serum
# Procedure: GVB^++ or Mg EGTA buffers, which had been supplemented with 2.5% glucose (w/v), were used for the CP and AP assays, respectively. For the AP, 150 µL of rabbit erythrocytes (TCS Biosciences, Botolph Claydon, UK) were washed twice, by addition of 1 mL of buffer and centrifugation at 800 ×g for 1 min, and finally resuspended in 500 µL of buffer. For the CP, 150 µL sheep erythrocytes (TCS Biosciences, Botolph Claydon, UK) were washed twice with 1 mL of buffer and sensitised with a 1/1000 dilution of rabbit anti-sheep red blood cell stroma antibody (S1389, Sigma Aldrich, Gillingham, UK). After a 30°C/30 min incubation, with shaking, the cells were rewashed and resuspended with 500 µL of buffer. Serial dilutions of peptide were prepared in the respective buffers and normal human serum was added at 1% for the CP and 4.5% for the AP (corresponding to CH50 of the serum). Also, 90 µL of peptide–serum mixtures were plated into a V-bottom 96-well microtiter plate (Corning) and 10 µL of erythrocytes were added. Plates were incubated for 30 min at 37°C, with shaking. Finally, 50 µL of buffer was added, the plates centrifuged at 800 ×g, and 80 µL of supernatant was transferred to an ELISA plate (Nunc) and absorbance measured at 405 nm.
# Table 1.8. Inhibition of alternative pathway haemolysis.
# T1 sequence (P01031 678-1676 limits assumed): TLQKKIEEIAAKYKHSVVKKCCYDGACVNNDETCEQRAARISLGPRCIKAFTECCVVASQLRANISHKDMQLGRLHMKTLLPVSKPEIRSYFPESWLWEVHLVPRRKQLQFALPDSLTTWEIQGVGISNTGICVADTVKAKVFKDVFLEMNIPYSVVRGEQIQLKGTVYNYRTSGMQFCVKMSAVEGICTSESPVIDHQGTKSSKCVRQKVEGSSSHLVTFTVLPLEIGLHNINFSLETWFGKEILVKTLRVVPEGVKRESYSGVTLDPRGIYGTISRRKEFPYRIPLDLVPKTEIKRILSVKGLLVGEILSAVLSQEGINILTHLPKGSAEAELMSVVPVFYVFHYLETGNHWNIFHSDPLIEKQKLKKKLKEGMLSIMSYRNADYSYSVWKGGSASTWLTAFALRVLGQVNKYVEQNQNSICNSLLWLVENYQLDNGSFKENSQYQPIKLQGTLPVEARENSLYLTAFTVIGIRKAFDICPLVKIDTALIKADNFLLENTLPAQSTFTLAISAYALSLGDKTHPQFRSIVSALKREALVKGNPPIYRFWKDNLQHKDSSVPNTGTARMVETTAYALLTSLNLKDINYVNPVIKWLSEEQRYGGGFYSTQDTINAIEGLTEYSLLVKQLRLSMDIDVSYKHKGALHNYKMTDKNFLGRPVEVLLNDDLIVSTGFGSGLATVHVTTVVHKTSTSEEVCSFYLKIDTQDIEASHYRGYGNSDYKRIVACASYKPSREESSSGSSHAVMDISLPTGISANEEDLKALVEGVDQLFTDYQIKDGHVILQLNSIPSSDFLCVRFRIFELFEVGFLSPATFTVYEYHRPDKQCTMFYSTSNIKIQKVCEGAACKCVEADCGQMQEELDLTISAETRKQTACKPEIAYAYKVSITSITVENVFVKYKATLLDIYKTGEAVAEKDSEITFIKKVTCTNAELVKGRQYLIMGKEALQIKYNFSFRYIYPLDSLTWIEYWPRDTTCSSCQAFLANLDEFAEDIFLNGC
# T1 sequence (P01031 19-673 limits assumed): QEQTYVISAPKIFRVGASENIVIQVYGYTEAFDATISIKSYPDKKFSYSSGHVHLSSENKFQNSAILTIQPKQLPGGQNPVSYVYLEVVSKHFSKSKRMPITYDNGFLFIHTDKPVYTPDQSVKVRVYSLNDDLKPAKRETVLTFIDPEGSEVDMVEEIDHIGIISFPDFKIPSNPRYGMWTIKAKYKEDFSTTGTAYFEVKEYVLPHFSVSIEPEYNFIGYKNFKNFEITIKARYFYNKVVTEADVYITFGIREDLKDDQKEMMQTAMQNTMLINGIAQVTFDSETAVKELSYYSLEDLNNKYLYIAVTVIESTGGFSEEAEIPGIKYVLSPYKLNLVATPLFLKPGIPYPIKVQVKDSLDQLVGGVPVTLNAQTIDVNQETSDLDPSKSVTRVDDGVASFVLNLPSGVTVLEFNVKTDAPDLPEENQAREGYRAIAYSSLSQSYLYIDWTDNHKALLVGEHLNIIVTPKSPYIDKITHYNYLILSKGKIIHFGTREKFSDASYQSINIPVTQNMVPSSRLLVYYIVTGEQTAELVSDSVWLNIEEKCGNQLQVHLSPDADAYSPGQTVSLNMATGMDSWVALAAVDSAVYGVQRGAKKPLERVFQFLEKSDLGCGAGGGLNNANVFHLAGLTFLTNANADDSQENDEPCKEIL
sequence,measurement,setting,value
"SVCPDGFDWGYGCAAGSSRFCTRHDWCCYDERADSHTYGFCTGNRVENLYFQ (disulfide 3-28, 13-21, 27-41) [K8]",binding to C5 saturated with K57,"human C5 [1]; two 20 µM injections of K57, then 20 µM second peptide","can bind, albeit at a lower level; also recorded: could still partially bind"
same,binding to C5 saturated with K92,"human C5 [1]; two 20 µM injections of K92, then 20 µM second peptide","can bind, albeit at a lower level; also recorded: still able to bind, albeit to a lesser degree"
same,mean stoich. ratio,"human C5 [2]; Biacore 8K, mean of n=3",0.25
same,koff,"human C5 [2]; pH 7.4, read-out: mean koff, Biacore 8K, HBS-EP pH 7.4, mean of n=3",0.000385 s⁻¹
same,kon,"human C5 [2]; pH 7.4, read-out: mean kon, Biacore 8K, CM5 chip, HBS-EP pH 7.4, mean of n=3",70500 M⁻¹ s⁻¹
same,koff,human C5 [2]; replicate n=1,0.000372 s⁻¹
same,kon,human C5 [2]; replicate n=1,71000 M⁻¹ s⁻¹
same,stoich. ratio,human C5 [2]; replicate n=1,0.28
same,koff,human C5 [2]; replicate n=2,0.000422 s⁻¹
same,kon,human C5 [2]; replicate n=2,72600 M⁻¹ s⁻¹
same,stoich. ratio,human C5 [2]; replicate n=2,0.23
same,koff,human C5 [2]; replicate n=3,0.000361 s⁻¹
same,kon,human C5 [2]; replicate n=3,67800 M⁻¹ s⁻¹
same,stoich. ratio,human C5 [2]; replicate n=3,0.24
same,Average Emax,[3]; CP C5a release,57.7%
same,IC50,"[3]; CP, C5a Human ELISA kit (Invitrogen) on activated serum from C5b ELISA plate, read-out: Geomean IC50",9.9 nM
same,inhibition of AP haemolysis (in words),[4],"did not show efficacy in the AP haemolysis assay, below 10 µM; also recorded: did not show activity in the AP assay below 10 µM"
